Experimental data: patent US11224601B1, “Compounds that inhibits MCL-1 protein” (priority 2017, dated 2022)
pIC50: −log10 of the molar value. Where two headings read alike, the source gives them in different places.

Experiments:
[1] = molecular target: recombinant human Mcl-1 (Mcl-1/Bim interaction) (Homo sapiens (Human), UniProt Q07820); assay: biochemical; format: binding; settings: cell free Mcl-1:Bim TR-FRET; read-out: Mcl-1 HTRF IC50
OPM-2 Luc cells [2] = assay: Tumor Pharmacodynamics (PD) model; format: in vivo; settings: dosed orally to female athymic nude mice inoculated with OPM-2 Luc cells; compared with Reference Compound 1
Text: Tumor Pharmacodynamics (PD)
FIGS. 1-7 illustrate the PD results of the cited Examples. The Reference Compound 1, an internal Amgen MC1-1 inhibitor compound made by one of the general schemes outlined in U.S. Pat. No. 9,562,061, herein incorporated by reference, is (1S,3′R,6′R,7′S,8′E,12′R)-6-chloro-12′-ethyl-7′-methoxy-3,4-dihydro-2H,15′H-spiro[naphthalene-1,22′-[20]oxa[13]thia[1,14]diazatetracyclo[14.7.2.0˜3,6˜.0˜19,24˜]pentacosa[8,16,18,24]tetraen]-15′-one 13′,13′-dioxide

[3] = system: OPM-2 human multiple myeloma cell line; assay: Cell Viability Assay (OPM-2 10 FBS), CellTiter-Glo; format: cell-based; settings: for IC50: Homo sapiens, OPM-2, 16 h, read-out: OPM-2 10% FBS IC50 IP (μM), OPM-2 cells, 10% FBS, 16 h, CellTiter-Glo
Outline: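 OPM-2 myeloma cells seeded at 3000 cells/well in RPMI 1640 with 10% FBS and exposed to serially diluted compounds for 16 h at 37° C., 5% CO2.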

OPM-2 Luc cells [4] = assay: OPM-2 xenograft efficacy model; format: in vivo; settings: dosed orally to female athymic nude mice inoculated with OPM-2 Luc cells

Chain of recombinant human Mcl-1 (Mcl-1/Bim interaction) (Q07820 171-327): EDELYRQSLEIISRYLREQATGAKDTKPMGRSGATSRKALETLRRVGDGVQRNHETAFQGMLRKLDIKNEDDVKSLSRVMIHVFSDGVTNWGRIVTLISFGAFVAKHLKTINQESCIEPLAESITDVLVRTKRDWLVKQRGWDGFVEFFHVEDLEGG

Row | Compound | pIC50 [1] | in vivo efficacy in a tumor PD model relative to Reference Compound 1 (OPM-2 Luc cells [2]) | IC50 [3] | in vivo efficacy in an OPM-2 xenograft efficacy model (OPM-2 Luc cells [4]) | pIC50 ([3]; read-out: OPM-2 10% FBS IC50 IP, OPM-2 cells, 10% FBS, 16 h, CellTiter-Glo)
1 | CCO[C@]1(CN2CCN(C3COC3)CC2)/C=C/C[C@H](C)[C@@H](C)S(=O)(=O)NC(=O)c2ccc3c(c2)N(C[C@@H]2CC[C@H]21)C[C@@]1(CCCc2cc(Cl)ccc21)CO3 [Example 2, (1S,3′R,6′R,7′R,8′E,11′S,12′R)-6-chloro-7′-ethoxy-11′,12′-dimethyl-7′-((4-(3-oxetanyl)-1-piperazinyl)methyl)-3,4-dihydro-2H,15′H-spiro[naphthalene-1,22′-[20]oxa[13]thia[1,14]diazatetracyclo[14.7.2.0˜3,6˜.0˜19,24˜]pentacosa[8,16,18,24]tetraen]-15′-one 13′,13′-dioxide] | 9.96 | superior in vivo efficacy | – | – | –
2 | CO[C@]1(CN2CCN(C3COC3)CC2)/C=C/C[C@H](C)[C@@H](C)S(=O)(=O)NC(=O)c2ccc3c(c2)N(C[C@@H]2CC[C@H]21)C[C@@]1(CCCc2cc(Cl)ccc21)CO3 [Example 3, (1S,3′R,6′R,7′R,8′E,11′S,12′R)-6-chloro-7′-methoxy-11′,12′-dimethyl-7′-((4-(3-oxetanyl)-1-piperazinyl)methyl)-3,4-dihydro-2H,15′H-spiro[naphthalene-1,22′-[20]oxa[13]thia[1,14]diazatetracyclo[14.7.2.0˜3,6˜.0˜19,24˜]pentacosa[8,16,18,24]tetraen]-15′-one 13′,13′-dioxide] | – | superior in vivo efficacy | 0.06 µM | – | –
3 | CO[C@]1(CN2CCN3CCOC[C@@H]3C2)/C=C/C[C@H](C)[C@@H](C)S(=O)(=O)NC(=O)c2ccc3c(c2)N(C[C@@H]2CC[C@H]21)C[C@@]1(CCCc2cc(Cl)ccc21)CO3 [Example 4, (1S,3′R,6′R,7′R,8′E,11′S,12′R)-6-chloro-7′-((9aS)-hexahydropyrazino[2,1-c][1,4]oxazin-8(1H)-ylmethyl)-7′-methoxy-11′,12′-dimethyl-3,4-dihydro-2H,15′H-spiro[naphthalene-1,22′-[20]oxa[13]thia[1,14]diazatetracyclo[14.7.2.0˜3,6˜.0˜19,24˜]pentacosa[8,16,18,24]tetraen]-15′-one 13′,13′-dioxide] | – | superior in vivo efficacy | 0.094 µM | – | –
4 | CCO[C@]1(CN2CCN3CCOC[C@@H]3C2)/C=C/C[C@H](C)[C@@H](CCOC)S(=O)(=O)NC(=O)c2ccc3c(c2)N(C[C@@H]2CC[C@H]21)C[C@@]1(CCCc2cc(Cl)ccc21)CO3 [Example 13, (1S,3′R,6′R,7′R,8′E,11′S,12′R)-6-chloro-7′-ethoxy-7′-((9aS)-hexahydropyrazino[2,1-c][1,4]oxazin-8(1H)-ylmethyl)-12′-(2-methoxyethyl)-11′-methyl-3,4-dihydro-2H,15′H-spiro[naphthalene-1,22′-[20]oxa[13]thia[1,14]diazatetracyclo[14.7.2.0˜3,6˜.0˜19,24˜]pentacosa[8,16,18,24]tetraen]-15′-one 13′,13′-dioxide] | 10.03 | superior in vivo efficacy | – | in vivo efficacy | –
5 | CCO[C@]1(CN2CCN(C3COC3)CC2)/C=C/C[C@H](C)[C@@H](CCOC)S(=O)(=O)NC(=O)c2ccc3c(c2)N(C[C@@H]2CC[C@H]21)C[C@@]1(CCCc2cc(Cl)ccc21)CO3 [Example 14, (1S,3′R,6′R,7′R,8′E,11′S,12′R)-6-chloro-7′-ethoxy-12′-(2-methoxyethyl)-11′-methyl-7′-((4-(3-oxetanyl)-1-piperazinyl)methyl)-3,4-dihydro-2H,15′H-spiro[naphthalene-1,22′-[20]oxa[13]thia[1,14]diazatetracyclo[14.7.2.0˜3,6˜.0˜19,24˜]pentacosa[8,16,18,24]tetraen]-15′-one 13′,13′-dioxide] | 10.10 | superior in vivo efficacy | – | – | –
6 | CO[C@@]1(CN2CCN3CCOC[C@@H]3C2)/C=C/C[C@H](C)[C@@H](C)S(=O)(=O)NC(=O)c2ccc3c(n2)N(C[C@@H]2CC[C@H]21)C[C@@]1(CCCc2cc(Cl)ccc21)CO3 [Example 18, (1S,3′R,6′R,7′S,8′E,11′S,12′R)-6-chloro-7′-((9aS)-hexahydropyrazino[2,1-c][1,4]oxazin-8(1H)-ylmethyl)-7′-methoxy-11′,12′-dimethyl-3,4-dihydro-2H,15′H-spiro[naphthalene-1,22′-[20]oxa[13]thia[1,14,25]triazatetracyclo[14.7.2.0˜3,6˜.0˜19,24˜]pentacosa[8,16,18,24]tetraen]-15′-one 13′,13′-dioxide] | 10.22 | superior in vivo efficacy | 0.022 µM | in vivo efficacy | –
7 | (1S,3′R,6′R,7′R,8′E,11′S,12′R)-6-chloro-7′-((9aS)-hexahydropyrazino[2,1-c][1,4]oxazin-8(1H)-ylmethyl)-7′-methoxy-12′-(2-methoxyethyl)-11′-methyl-3,4-dihydro-2H,15′H-spiro[naphthalene-1,22′-[20]oxa[13]thia[1,14]diazatetracyclo[14.7.2.0˜3,6˜.0˜19,24˜]pentacosa[8,16,18,24]tetraen]-15′-one 13,13′-dioxide [Example 11] | – | – | – | in vivo efficacy | 7.29
